Source: patent US4647571A, “Cysteine delivery composition” (Cornell Research Foundation, priority 1982, dated 1987)
Several values for one entry are separate records, joined by “and”; a condition that tells them apart may be missing. Equal entries are not always repeated.

Legend:
[1] = target: T1, 5-oxo-L-prolinase (Rattus norvegicus, UniProt P97608); test: Action of 5-oxo-L-prolinase on substrates (products formed); format: biochemical; conditions: for Reaction on incubation with 5-oxo-L-prolinase: in the presence of ATP; for Products Formed: ADP: 5 mM ATP, 30 min at 37° C., pyruvate kinase-lactate dehydrogenase coupled assay
T1 construct: 5-Oxo-L-prolinase was isolated from rat kidney and freed of 5-oxoproline by gel filtration; from tissue; host or cells: rat kidney
T1 sequence (P97608 1-1288): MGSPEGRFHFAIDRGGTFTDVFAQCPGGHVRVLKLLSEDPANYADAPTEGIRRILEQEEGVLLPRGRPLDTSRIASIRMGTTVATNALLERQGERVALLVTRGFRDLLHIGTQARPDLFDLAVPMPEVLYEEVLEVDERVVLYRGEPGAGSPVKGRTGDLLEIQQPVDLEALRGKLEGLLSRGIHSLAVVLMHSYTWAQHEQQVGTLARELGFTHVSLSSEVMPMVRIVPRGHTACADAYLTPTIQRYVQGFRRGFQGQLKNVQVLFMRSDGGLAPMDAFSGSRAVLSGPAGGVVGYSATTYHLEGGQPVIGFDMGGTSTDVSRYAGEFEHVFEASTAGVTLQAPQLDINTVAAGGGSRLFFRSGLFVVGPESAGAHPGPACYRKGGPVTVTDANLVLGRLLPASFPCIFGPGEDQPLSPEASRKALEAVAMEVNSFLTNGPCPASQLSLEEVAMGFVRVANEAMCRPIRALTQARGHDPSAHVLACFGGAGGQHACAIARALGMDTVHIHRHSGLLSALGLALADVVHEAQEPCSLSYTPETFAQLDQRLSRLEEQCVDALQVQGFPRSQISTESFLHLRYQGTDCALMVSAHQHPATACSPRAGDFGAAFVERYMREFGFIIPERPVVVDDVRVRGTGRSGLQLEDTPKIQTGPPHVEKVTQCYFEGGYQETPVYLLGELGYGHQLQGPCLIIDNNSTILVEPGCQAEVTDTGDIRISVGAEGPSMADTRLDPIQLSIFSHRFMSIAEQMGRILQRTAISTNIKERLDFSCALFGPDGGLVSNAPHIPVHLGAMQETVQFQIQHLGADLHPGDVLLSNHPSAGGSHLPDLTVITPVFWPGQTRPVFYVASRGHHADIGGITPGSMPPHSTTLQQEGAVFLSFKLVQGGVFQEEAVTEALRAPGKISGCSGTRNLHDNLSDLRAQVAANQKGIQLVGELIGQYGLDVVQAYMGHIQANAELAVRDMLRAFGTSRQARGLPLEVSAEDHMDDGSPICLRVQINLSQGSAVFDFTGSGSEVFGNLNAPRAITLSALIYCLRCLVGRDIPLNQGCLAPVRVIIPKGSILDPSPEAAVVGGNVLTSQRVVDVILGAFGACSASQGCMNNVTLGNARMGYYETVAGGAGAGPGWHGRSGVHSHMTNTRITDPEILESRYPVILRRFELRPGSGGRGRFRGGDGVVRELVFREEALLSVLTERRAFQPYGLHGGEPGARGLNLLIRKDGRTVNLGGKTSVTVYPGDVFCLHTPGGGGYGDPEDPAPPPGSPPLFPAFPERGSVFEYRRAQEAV
Method: (§1) In the experiments the reaction mixtures were made up to contain (final volume 0.5 ml) 100 mM Na Hepes (Na salt of N-2-hydroxyethylpiperizine-N'-2ethanesulfonic acid) buffer (pH 8.0), 150 mM KCl, 8 mM MgCl2, 2 mM phosphoenolpyruvate, 5 mM ATP (adenosine triphosphate), pyruvate kinase, in excess, 20 micrograms of 5-oxoprolinase, and the substrate as indicated.
(§2) The L-and D-isomers of 2-oxothiazolidine-4-carboxylate were synthesized by the method set out in Kaneko et al, Bull, Chem. Soc. (Japan) vol. 37, pp. 242-4 (1964) as modified by the method of Shah et al, Cancer Research vol. 39, pp. 3942-7 (1979). 5-Oxo-L-prolinase was isolated from rat kidney and freed of 5-oxoproline by gel filtration. Other chemicals and materials were obtained commercially.
(§3) After incubation ofr 30 min. at 37° C., the reaction mixtures were treated with 0.1 volume of 1 M HCl, and placed at 0° C. for 5 min.; and an equivalent volume of 1 M 2-amino-2-hydroxylmethyl-1,3,-propanediol was added. Portions were analyzed for amino acids by use of a Durrum Model 500 amino acid analyzer. Cysteine was also determined in some experiments by reaction with 5,5'-dithiobis (2-initrobenzoate) (DTNB).

[2] = target: T1, 5-oxo-L-prolinase; test: Inhibition of utilization of 5-oxo-L-proline (glutamate formation) by the purified enzyme; format: biochemical; conditions: 1 mM 5-oxo-L-proline
Method: as §1, §2, §3
Energy for the reaction is supplied by the cleavage of ATP. […] The ratio of ADP to cysteine produced increased with time due undoubtedly to the loss of cysteine due to oxidation.

[3] = test system: 5-oxoproline metabolism; test: In vivo inhibition of 5-oxoproline metabolism (respiratory 14CO2 after 5-oxo-L-[14C]proline); set-up: species or system mice
Method: (§4) The in vitro results showing that L-2-oxothiazolidine-4-carboxylate inhibits utilization of 5-oxoproline were confirmed by in vivo experiments. In the latter, animals were injected with 5-oxo-L-[^14 C] proline and the respiratory [^14 CO2 ] produced was collected and measured for several hours. […] However, L-2- oxothiazolidine-4-carboxylate is a much more efficient inhibitor.
(§5) FIG. 3depicts the inhibition of 5-oxoproline metabolism by L-2- oxothiazolidine-4-carboxylate. Mice fasted overnight were injected intraperitoneally with NaCl (Curve 1; open symbols; controls) or with Na L-2-oxothiazolidine-4-carboxylate (2.5 mmol/kilo) (Curve 2; closed symbols). After 10 min., the mice were injected subcutaneously with 5-oxo-L-[^14 C] proline (A) or with L-[^14 C] glutamate (B) (0.02 mmol; 1.1×10^6 cpm). The mice were then placed in metabolic chambers and the respiratory CO2 was collected in ethanolamine/methanol, 1:4 (vol/vol). In A, each curve represents the results on 3 animals; the points are mean values and the bars represent standard deviations from the mean. In B, each curve represents the average of closely-agreeing results obtained from 2 animals.

[4] = test system: metabolism of glutamate; test: In vivo metabolism of L-[14C]glutamate (respiratory 14CO2); conditions: mice, 2.5 mmol/kilo intraperitoneally
Method: as §4, §5

[5] = test system: hepatic glutathione; test: Hepatic glutathione level after injection; format: in vivo, mice; conditions: for hepatic glutathione level relative to controls: mice fasted overnight, 6.5 mmol/kilo intraperitoneally (D-isomer: equivalent doses)
Method: The effect of injecting mice with L-2-oxothiazolidine-4-carboxylate on the level of hepatic gluathione was studies. […] The maximal effect was observed about 4 hours after injection. […] These findings are indicative of in vivo formation of cysteine after administration of L-2- oxothiazolidine-4-carboxylate.
Mice fasted overnight were injected intraperitoneally with NaCl (controls; dashed line) or with Na L-2-oxothiazolidine-4-carboxylate (6.5 mmol/kilo). At intervals, the mice were sacrificed and the excised liver was homogenized in 5 volumes of 1% picric acid. After centrifugation, the protein-free supernatant solutions were analyzed for glutathione by the method of Tietze, Anal. Biochem 27, 502-22(1969). Analyses were carried out in duplicate. In a number of instances, these values were checked by the 2-vinylpyridine procedure of Griffith, Anal. Biochem. 106; 207-12(1980); good agreement between the two methods was observed. In the figure, the points are mean values and the bars indicate the average deviation from the mean. The numbers in parentheses give the number of animals used. The value for the controls was 4.40±0.9 umol/g.

[6] = test system: liver glutathione; test: Hepatic glutathione in mice depleted of glutathione (acetoaminophenol); format: in vivo
Method: Administration of this compound therefore provides a way of getting cysteine into cells. One cannot give cysteine itself without complications since this amino acid is toxic extracellularly. However, when the L-oxothiazolidine compound is injected it enters the cell where it is split giving rise to cysteine within the cell. In a number of clinical situations, for example, after poisoning with excessive pain-killing drugs, e.g., those containing active ingredients known as N-acetyl-para-aminophenol, paracetamol, and acetaminophen, the liver glutathione levels decrease markedly. When cysteine is supplied to liver cells, additional glutathione can be synthesized and thus serve usefully in detoxifying the offending drug. Therefore, L-2-oxothiazolidine-4-carboxylate serves as an intracellular delivery system for cysteine and has potential as a therapeutic agent in situations in which there is depletion of liver glutathione. After acetoaminophenol is given to experimental animals such as mice, the liver glutathione declines rapidly because it is extensively utilized by reaction with the drug. […] For human treatment the L-isomer, preferably in the form of its neutral salt is administered directly into the gastro-intestinal tract or introduced intravenously.

[7] = test system: tissue cysteine; test: Tissue/liver cysteine after administration; format: in vivo, mice
[8] = test system: 5-oxoproline metabolism; conditions: previous studies of the inventors; cited from earlier work

O=C1N[C@H](C(=O)O)CS1 [L-2-oxothiazolidine-4-carboxylate]
apparent Km value ([1]; compared with the natural substrate): somewhat lower than that found for the natural substrate
Reaction on incubation with 5-oxo-L-prolinase [1]: rapid formation of ADP and cysteine
Products Formed: ADP ([1]; substrate 2 mM): 478 nmol and 499 nmol
Products Formed: Amino Acid ([1]; substrate 2 mM, after conversion to cystine): 463 nmol
Products Formed: Amino Acid ([1]; substrate 2 mM, determined after reduction with KBH4 and reaction with iodoacetamide): 466 nmol
inhibition at 1000 µM ([2]; inhibitor 1 mM): 73%
inhibition at 5000 µM ([2]; inhibitor 5 mM): 92%
inhibition at 10000 µM ([2]; inhibitor 10 mM): 97%
formation of respiratory 14CO2 from 5-oxo-L-[14C]proline ([3]; mice, 2.5 mmol/kilo intraperitoneally 10 min before label): marked decrease
in vivo inhibitory activity relative to L-2-imidazolidone-4-carboxylate ([3]; on a molar basis): at least four times more active
injected 5-oxo-L-[14C]proline dose excreted in urine ([3]; treated animals, none found in the urine of the controls): about 16 % of the injected dose
effect on the metabolism of glutamate [4]: does not have a significant effect
hepatic glutathione level relative to controls [5]: about twice those of the controls
time of maximal effect on hepatic glutathione after injection ([5]; mice, 6.5 mmol/kilo intraperitoneally): about 4 hours
liver glutathione after acetoaminophenol ([6]; mice, given even two hours after the drug): an increase in liver glutathione occurs
hepatic glutathione levels in mice depleted of hepatic glutathione ([6]; mouse, in vivo): restoration of normal hepatic glutathione levels
cysteine content of tissues ([7]; administration to animals): increase in the cysteine content of tissues, especially the liver
free cysteine in acid extracts of the livers ([7]; amino acid analysis after dithiothreitol reduction and 2-vinylpyridine derivatization): No free cysteine was detected

O=C1NC[C@@H](C(=O)O)N1 [L-2-imidazolidone-4-carboxylate]
Products Formed: ADP ([1]; substrate 2 mM): 930 nmol
Products Formed: Amino Acid ([1]; substrate 2 mM, footnote: less than 5 nmol): 0 nmol
in vivo metabolism of 5-oxoproline [8]: markedly inhibits

O=C1CC[C@@H](C(=O)O)N1 [5-Oxo-L-proline, 5-oxo-L-proline]
calculated Vmax value ([1]; compared with the L-isomer): higher than that found for the L-isomer
Products Formed: ADP ([1]; substrate 2 mM): 924 nmol
Products Formed: Amino Acid (as glutamate) ([1]; substrate 2 mM, as glutamate): 916 nmol

O=C1N[C@@H](C(=O)O)CS1 [D-2-oxothiazolidine-4-carboxylate]
Reaction on incubation with 5-oxo-L-prolinase [1]: No reaction was observed
Products Formed: ADP ([1]; substrate 5 mM): 96 nmol
Products Formed: Amino Acid ([1]; substrate 5 mM, after reduction with KBH4 and reaction with iodoacetamide, footnote: less than 20 nmol): 0 nmol
inhibition of glutamate formation (in words) ([2]; same conditions): did not inhibit glutamate formation
hepatic glutathione level relative to controls [5]: No such stimulation was observed
